Measurements: ChEMBL document CHEMBL5726197, “Oxoazetidine derivatives, process for the preparation thereof and use thereof in human medicine and in cosmetics” (2017)

Assays:
[1] = biological target: Melanocortin receptor 4 (Homo sapiens, UniProt P32245); test: (§1) Transactivation Assay: In the presence of an activator (agonist), the melanocortin receptor will activate the cAMP pathway which, via the CRE-Luc vector, will result in the synthesis of luciferase. After the addition of a lysis buffer containing a luminescent substrate for luciferase, it will be possible to measure the luminescence proportional to the degree of activation or of inhibition of the receptor. The products are solubilized at 10 mM in DMSO. They are tested in the form of dose-response at a final DMSO concentration of 0.1%. The range comprising 10 points and one zero begins at 10 μM with 4-fold dilutions. For testing agonists, the products are tested alone. For determining the behaviour of antagonists, the products of interest are tested in the presence of 1 nM NDP-MSH (reference agonist). The cells are seeded at a rate of 5000 cells per well (384 well plate) in serum-free DMEM medium, and incubated overnight at 37° C., 5% CO2.The products and the reference ligand (NDP-MSH) are added the following day, and the plates are again incubated for 6 h at 37° C., 5% CO2. After the addition of lysis buffer containing luciferin, the plates are read on a Top-Count instrument. The results are standardized as % activity using the 100% (cells+NDP-MSH at 10 nM) and 0% (cells alone) controls. An EC50 is calculated for each product using the XLFit software. The results are given in nM. […]
[2] = biological target: Melanocyte-stimulating hormone receptor (Homo sapiens, UniProt Q01726); test: as §1
Chain of Melanocyte-stimulating hormone receptor (Q01726 whole entry): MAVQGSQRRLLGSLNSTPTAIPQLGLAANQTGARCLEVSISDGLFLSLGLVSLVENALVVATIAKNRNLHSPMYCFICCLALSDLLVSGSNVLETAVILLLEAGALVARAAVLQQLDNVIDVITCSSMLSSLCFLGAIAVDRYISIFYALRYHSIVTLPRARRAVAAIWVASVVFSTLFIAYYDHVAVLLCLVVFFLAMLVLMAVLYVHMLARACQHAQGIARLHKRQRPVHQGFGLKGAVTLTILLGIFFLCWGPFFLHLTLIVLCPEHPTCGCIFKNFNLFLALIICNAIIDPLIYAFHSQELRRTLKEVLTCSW

Chain of Melanocortin receptor 4 (P32245 whole entry): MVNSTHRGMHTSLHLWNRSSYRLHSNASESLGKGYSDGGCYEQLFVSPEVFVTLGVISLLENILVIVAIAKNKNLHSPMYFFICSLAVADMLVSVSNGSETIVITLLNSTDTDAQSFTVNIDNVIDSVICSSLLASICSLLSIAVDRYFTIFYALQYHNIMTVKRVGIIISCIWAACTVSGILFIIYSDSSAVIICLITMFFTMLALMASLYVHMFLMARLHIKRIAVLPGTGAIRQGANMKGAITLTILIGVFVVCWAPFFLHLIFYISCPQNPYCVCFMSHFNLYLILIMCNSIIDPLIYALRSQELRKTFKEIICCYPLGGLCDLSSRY

- EC50 [1]: 30 nM
- EC50 [2]: 60 nM
SMILES: CCCCCC1(c2ccccc2OC)CN(C(=O)[C@@H](Cc2ccc(OC)cc2)NC(=O)CCc2c[nH]cn2)C1
